Columns and labels:
[1] = Odour reduction by lipid-treated fluff pulp, headspace SPME-GC/MS; conditions: pulp with 30% by weight lipid; 1000 ng/ml odour substance; 3 h + 0.5 h at 35° C.; vs untreated pulp
Method: Sheets of sulfate pulp from Weyerhaeuser Inc., with the designation NB416, were impregnated with a solution of the tested oil/fat in hexane. To a pulp sheet weighing 10 g was added a solution of 4.29 g oil in 4.29 g hexane. The solution was evenly distributed over the surface of the sheets. When the hexane had evaporated the sheets contained 30% by weight oil/fat and 70% by weight pulp fibers. The treated sheets were defibrated in a Braun multimixer MX32 to produce fluff pulp.
1 g of treated pulp was put in a 60 ml vial, after which 3.9 ml of 0.01 M phosphate buffered saline solution pH 7.4 from Sigma was added. Then 0.1 ml PEG300 with DMS (dimethyl sulfide), DMDS (dimethyl disulfide) and IVA (isovaleric aldehyde) was added so that the concentration of each odour substance in the final solution was 1000 ng/ml.
After 3 h at 35° C. a SPME fiber (Supelco), 75 μm Carboxen-PDMS, was injected into the headspace above the pulp and after an additional 0.5 h the SPME fiber was analyzed with gas chromatography (GC), Thermo Finnigan Trace, with a MS detector. The peak area of each odour substance was determined for samples with treated pulp and the untreated reference pulp. The GC settings were:
Temperature program for GC: 30° C. (7 min), 3° C./min-70° C. (0 min), 40° C./min-250° C. (7 min). Column: ZB-624 (Zebron), 30 m, 0.25 mm i.d. 1.40 μm film thickness Inlet temperature: 250° C. Transfer line: 220° C.
MS: SIM (single ion monitoring). When DMS, IVA and DMDS were analyzed the following mass numbers were detected: 45, 46, 47, 57, 58, 61, 62, 79, 86 and 94.
The odour reduction was determined by comparing the peak area of the tested sample with the same peak area achieved when testing the untreated reference pulp. The calculation of the odour reduction in percent was made by the equation:
Odour reduction=100×(1−Actual peak area/Peak area of sample with untreated pulp)
These ozonized lipids were tested for their odour reducing effect on treated pulp in the same manner as under Trial 1 above. The only exception in the laboratory procedure was the method for treatment of the pulp with Acolectin.

[2] = autoxidation at 100° C., fatty acids not treated with antioxidants; cited from earlier work
[3] = Peroxide value, AOCS Official Method Cd 8-53; assay type: physicochemical; conditions: Trial 2 lipids after ozonization; lipids used for treatment of wipes
Method: The degree of oxidation was tested by determining the peroxide value according to the test method AOCS Official Method Cd 8-53 Surplus 2003. The peroxide value for both the starting oils/fats and the ozonized oils/fats was determined.

[4] = Odour reduction by lipid-treated spunlaced nonwoven wipes, headspace SPME-GC/MS; conditions: 1 g spunlaced nonwoven treated with 2 g lipid; 1000 ng/ml odour compound
Method: A spunlaced nonwoven with the trade name Fibrella 7160, available from Suominen (Finland) was used in these experiments. This material, which consists of about 60% polypropylene fibres and 40% rayon fibres, has a basis weight of about 50 g/m^2. Pieces with a weight of 1 g and an area of 0.020 m^2 were cut from the spunlaced nonwoven sheet. These pieces were then treated with lipids. 2 g of the lipid was dissolved in 4 g of either hexane or acetone and evenly distributed on the piece of nonwoven. Acetone was used to dissolve all ozonated oils and oleic acid while the other not ozonated oils where dissolved in hexane. After several hours, when the solvent had evaporated, the nonwoven pieces were folded and inserted into 60 ml vials, used for SPME analysis. The vials were then flushed with nitrogen gas and sealed.
Vials with a volume of 60 ml containing 1 g spunlaced nonwoven treated with 2 g lipid were used in these tests. The laboratory procedure was the same as earlier described when evaluating the odour reduction of fluffed pulp, see page 10-11. To each vial was added 3.9 ml phosphate buffered saline solution, pH 7.4 and 0.1 ml PEG300 with DMS, DMDS and IVA. The total concentration of each odour compound was 1000 ng/ml.

Compound	Reduction of odour substances in %, DMDS [1]	Reduction of odour substances in %, DMS [1]	Reduction of odour substances in %, IVA [1]	Relative rate of oxidation [2]	Peroxide value [3]	Reduction of odour substances in %, DMDS [4]	Reduction of odour substances in %, DMS [4]	Reduction of odour substances in %, IVA [4]
CCCCC/C=C\C/C=C\CCCCCCCC(=O)OCC [Ethyl linoleate, ethyl linoleate]	0%	0%	0%	–	–	–	–	–
CCCCC/C=C\C/C=C\CCCCCCCC(=O)O [Linoleic acid]	–	–	–	64	–	–	–	–
CCCCCCCCCCCCCCCCCC(=O)O [Stearic acid]	–	–	–	0.6	–	–	–	–
CCCCCCCC/C=C\CCCCCCCC(=O)O [Oleic acid, oleic acid]	19.2%	67.5%	9.3%	6	3.1 meqv./kg	83.6%	67.4%	74.5%

Reference: patent US20110150959A1, “WIPE WITH ODOUR CONTROL SUBSTANCE” (SCA Hygiene Products AB, priority 2008, published 2011)
